Target: Large T antigen (Simian virus 40) (UniProt P03070)
Test: TAg ATPase/helicase activity blockers – biochemical (AID 1903)
Settings: SV40 large T antigen ATPase/helicase inhibition assay

Sequence of Large T antigen (Simian virus 40) (P03070 whole entry, looked up): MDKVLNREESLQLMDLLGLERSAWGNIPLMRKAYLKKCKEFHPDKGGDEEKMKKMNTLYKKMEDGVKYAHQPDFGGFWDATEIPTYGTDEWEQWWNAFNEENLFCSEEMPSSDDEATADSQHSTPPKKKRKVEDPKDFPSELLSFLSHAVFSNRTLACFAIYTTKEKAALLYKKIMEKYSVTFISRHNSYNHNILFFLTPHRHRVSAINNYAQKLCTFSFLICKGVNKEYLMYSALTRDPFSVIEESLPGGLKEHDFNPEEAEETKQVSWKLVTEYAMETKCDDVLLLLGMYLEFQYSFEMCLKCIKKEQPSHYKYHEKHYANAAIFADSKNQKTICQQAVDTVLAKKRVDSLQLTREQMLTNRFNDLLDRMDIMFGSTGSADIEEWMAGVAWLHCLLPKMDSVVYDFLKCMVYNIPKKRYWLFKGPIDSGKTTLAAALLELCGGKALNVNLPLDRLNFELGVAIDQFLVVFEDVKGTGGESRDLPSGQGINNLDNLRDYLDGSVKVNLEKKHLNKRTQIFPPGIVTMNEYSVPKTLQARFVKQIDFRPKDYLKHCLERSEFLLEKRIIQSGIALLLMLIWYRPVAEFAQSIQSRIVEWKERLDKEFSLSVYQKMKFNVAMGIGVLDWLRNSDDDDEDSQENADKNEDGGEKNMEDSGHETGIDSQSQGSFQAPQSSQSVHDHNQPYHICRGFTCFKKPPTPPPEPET

Row | Compound | IC50 [µM]
1 | C#CCOCCOCCOCCNc1nc(N2CCN(C(=O)CCCCCCCCCCNC(=O)[C@H]([C@@H](C)CC)n3cc(CCCCN=C(N)N)nn3)CC2)nc(N2CCN(C(=O)CCCCCCCCCCNC(=O)[C@H](CCCCN)n3cc(C[C@@H](C)CC)nn3)CC2)n1 | 13.1
2 | C#CCOCCOCCOCCNc1nc(N2CCN(C(=O)CCCCCCCCCCNC(=O)[C@H]([C@@H](C)CC)n3cc(CCCCN=C(N)N)nn3)CC2)nc(N2CCN(C(=O)CCCCCCCCCCNC(=O)[C@H](CCCN=C(N)N)n3cc(C[C@@H](C)CC)nn3)CC2)n1 | 10.3
3 | C[CH2][Hg][S]c1ccccc1C(=O)O | 32.7
4 | C#CCOCCOCCOCCNc1nc(N2CCN(C(=O)CCCCCCCCCCNC(=O)[C@H]([C@@H](C)CC)n3cc(CCCCN=C(N)N)nn3)CC2)nc(N2CCN(C(=O)CCCCCCCCCCNC(=O)[C@H]([C@@H](C)CC)n3cc(CCCCN=C(N)N)nn3)CC2)n1 | 5.17
5 | O=C(O)c1cc[c]([Hg][Cl])cc1 | 1.27
6 | C[c-]1[c-](C)[c-](C)[c-](C)[c-]1C.[Fe].c1cc2nccc(N3CCCC3)[c-]2c1 (centres undefined) | 17.6
7 | C#CCOCCOCCOCCNc1nc(N2CCN(C(=O)CCCCCCCCCCNC(=O)[C@H](CCCN=C(N)N)n3cc(C[C@@H](C)CC)nn3)CC2)nc(N2CCN(C(=O)CCCCCCCCCCNC(=O)[C@@H]([C@H](C)CC)n3cc(CCCCCN)nn3)CC2)n1 | 18.6
8 | O=C(O)CCC1c2cc3c4cc2OC2Oc5cc6c(cc51)C(CCC(=O)O)c1cc5c7cc1OC(O6)c1cc6cc(c1)Oc1cc(cc(C(=O)O)c1)Oc1cc8cc(c1)C(Oc1cc(c(cc1C5CCC(=O)O)C3CCC(=O)O)OC(O4)c1cc(cc(c1)Oc1cc(cc(C(=O)O)c1)O8)Oc1cc(cc(C(=O)O)c1)Oc1cc(cc2c1)Oc1cc(cc(C(=O)O)c1)O6)O7 (centres undefined) | < 0.39
9 | CCCCC1(C)OC(=O)C(=Cc2ccc(-c3ccc(Cl)c(C(=O)O)c3)o2)C(=O)O1 (centres undefined) | 17.2

From PubChem BioAssay AID1903 (Southern Research Specialized Biocontainment Screening …, 2009)
